Counter-ions that a name gives are not always drawn. Like-named read-outs stand apart in the source and are kept apart here.
Tests used:
Format in all cases: biochemical
recombinant PRL-3 = target: T1, recombinant PRL-3 (Homo sapiens, UniProt O75365); test: In vitro phosphatase assay (DiFMUP hydrolysis), PRL-3
T1 construct: 6xHis (N, cleaved yes); made in house; host or cells: E. coli One Shot BL21 Star

recombinant PRL-2 = target: T2, recombinant PRL-2 (Homo sapiens, UniProt Q12974); test: In vitro phosphatase assay (DiFMUP hydrolysis), PRL-2;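 further: PRL-2 activity read as DiFMUP hydrolysis after 20 min at room temperature with drug, enzyme first pre-reduced at 4 °C for 20 min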
T2 construct: 6xHis (N, cleaved yes); made in house; host or cells: E. coli One Shot BL21 Star
T2 sequence (Q12974 1-167): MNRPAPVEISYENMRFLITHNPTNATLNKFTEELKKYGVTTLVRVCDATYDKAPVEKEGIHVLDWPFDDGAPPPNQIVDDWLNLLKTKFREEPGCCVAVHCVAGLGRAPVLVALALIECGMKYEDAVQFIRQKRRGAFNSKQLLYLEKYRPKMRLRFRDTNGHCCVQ

recombinant PRL-1 = target: T3, recombinant PRL-1 (Homo sapiens, UniProt Q93096); test: In vitro phosphatase assay (DiFMUP hydrolysis), PRL-1
T3 construct: 6xHis (N, cleaved yes); made in house; host or cells: E. coli One Shot BL21 Star
T3 sequence (Q93096 1-173): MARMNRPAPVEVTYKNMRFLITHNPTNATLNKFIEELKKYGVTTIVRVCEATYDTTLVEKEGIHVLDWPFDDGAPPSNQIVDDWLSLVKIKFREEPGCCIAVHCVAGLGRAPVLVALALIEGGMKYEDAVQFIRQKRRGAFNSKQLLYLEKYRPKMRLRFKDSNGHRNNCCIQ

[1] = FDA-approved drug screen, compared to DMSO
[2] = FDA-approved drug screen, activity compared to DMSO

T1 sequence (O75365 whole entry): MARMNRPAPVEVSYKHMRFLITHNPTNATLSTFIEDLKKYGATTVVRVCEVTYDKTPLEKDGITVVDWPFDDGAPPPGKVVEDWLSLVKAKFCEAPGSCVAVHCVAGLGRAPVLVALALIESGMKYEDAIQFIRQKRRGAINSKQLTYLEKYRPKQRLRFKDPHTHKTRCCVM

Compound | % Phosphatase Activity (compared to DMSO) PRL-3 (recombinant PRL-3; [1]) [%] | % Phosphatase Activity (compared to DMSO) PRL-2 (recombinant PRL-2; [1]) [%] | % Phosphatase Activity (compared to DMSO) PRL-1 (recombinant PRL-1; [1]) [%] | other results
C[N+](C)(CCOc1ccccc1)Cc1ccccc1.O=C([O-])c1cc2ccccc2cc1O [Bephenium Hydroxynaphthoate] | 92 | 103 | 108 | 
CNC[C@H](O)[C@@H](O)[C@H](O)[C@H](O)CO.CNC[C@H](O)[C@@H](O)[C@H](O)[C@H](O)CO.C[C@@H](O[C@H]1OCCN(Cc2nn(P(=O)(O)O)c(=O)[nH]2)[C@H]1c1ccc(F)cc1)c1cc(C(F)(F)F)cc(C(F)(F)F)c1 [Fosaprepitant dimeglumine salt] | 85 | 94 | 87 | 
CCN1CCCC1CNC(=O)c1cc(S(=O)(=O)CC)c(N)cc1OC (stereo not drawn) [Amisulpride] | 74 | 89 | 94 | 
Nc1nc(Cl)nc2c1ncn2[C@@H]1O[C@H](CO)[C@@H](O)[C@@H]1F [Clofarabine] | 81 | 100 | 97 | 
Cc1nc(Nc2ncc(C(=O)Nc3c(C)cccc3Cl)s2)cc(N2CCN(CCO)CC2)n1 [Dasatinib Monohydrate] | 98 | 79 | 97 | 
CC1=C(CC(=O)O)c2cc(F)ccc2/C1=C\c1ccc([S+](C)[O-])cc1 (stereo not drawn) [Sulindac] |  |  |  | % Phosphatase Activity (compared to DMSO) PRL-3 (recombinant PRL-3; [2]): 85%; % Phosphatase Activity (compared to DMSO) PRL-2 (recombinant PRL-2; [2]): 96%; % Phosphatase Activity (compared to DMSO) PRL-1 (recombinant PRL-1; [2]): 83%
CC1(C)[C@H](C(=O)O)N2C(=O)C[C@H]2S1(=O)=O [Sulbactam sodium] |  |  |  | % Phosphatase Activity (compared to DMSO) PRL-3 (recombinant PRL-3; [2]): 89%; % Phosphatase Activity (compared to DMSO) PRL-2 (recombinant PRL-2; [2]): 112%; % Phosphatase Activity (compared to DMSO) PRL-1 (recombinant PRL-1; [2]): 111%
CNNCc1ccc(C(=O)NC(C)C)cc1 [Procarbazine HCl] | 87 | 90 | 103 | 
CC(C)C(=O)Nc1ccc([N+](=O)[O-])c(C(F)(F)F)c1 [Flutamide] | 77 | 76 | 81 | 
CCCCCCCCCCC[C@@H](C[C@@H]1OC(=O)[C@H]1CCCCCC)OC(=O)[C@H](CC(C)C)NC=O [Orlistat] | 79 | 91 | 113 | 
CCN[C@@H]1C[C@H](N)[C@@H](O[C@H]2OC(CN)=CC[C@H]2N)[C@H](O)[C@H]1O[C@H]1OC[C@](C)(O)[C@H](NC)[C@H]1O.CCN[C@@H]1C[C@H](N)[C@@H](O[C@H]2OC(CN)=CC[C@H]2N)[C@H](O)[C@H]1O[C@H]1OC[C@](C)(O)[C@H](NC)[C@H]1O.O=S(=O)(O)O.O=S(=O)(O)O.O=S(=O)(O)O.O=S(=O)(O)O.O=S(=O)(O)O [Netilmicin Sulfate] | 111 | 110 | 86 | 
O=C1c2cccc(O)c2C(=O)c2c(O)cccc21 [Danthron] | 78 | 96 | 96 | 
CN(C)[C@@H]1C(O)=C(C(N)=O)C(=O)[C@@]2(O)C(O)=C3C(=O)c4c(O)ccc(Cl)c4[C@@](C)(O)[C@H]3C[C@@H]12 [Chlortetracycline HCl] | 77 | 95 | 106 | 
Cc1nc2n(c(=O)c1CCN1CCC(c3noc4cc(F)ccc34)CC1)CCCC2O (stereo not drawn) [Paliperidone] | 75 | 103 | 102 | 
COc1cc(C2Oc3cc([C@H]4Oc5cc(O)cc(O)c5C(=O)[C@@H]4O)ccc3OC2CO)ccc1O (stereo partly drawn) [Silibinin] |  |  |  | % Phosphatase Activity (compared to DMSO) PRL-3 (recombinant PRL-3; [2]): 87%; % Phosphatase Activity (compared to DMSO) PRL-2 (recombinant PRL-2; [2]): 87%; % Phosphatase Activity (compared to DMSO) PRL-1 (recombinant PRL-1; [2]): 88%
O=C1c2cccc3c2[C@H](CCC3)CN1[C@@H]1CN2CCC1CC2 [Palonosetron HCl] | 117 | 96 | 90 | 
CCCCC(CC)COC(=O)CC(C(=O)OCC(CC)CCCC)S(=O)(=O)O (stereo not drawn) [Docusate Sodium, reference compound] |  |  |  | % Phosphatase Activity (compared to DMSO) PRL-3 (recombinant PRL-3): 34%; IC50 (recombinant PRL-3; 2.5 µM protein, DiFMUP at KM, read-out: Calculated IC50, PRL-3 phosphatase activity): 43 ± 5 µM; % Phosphatase Activity (compared to DMSO) PRL-2 (recombinant PRL-2): 63%; IC50 (recombinant PRL-2; 2.5 µM protein, DiFMUP at KM, read-out: Calculated IC50, PRL-2 phosphatase activity): 140 ± 44 µM; % Phosphatase Activity (compared to DMSO) PRL-1 (recombinant PRL-1): 64%; IC50 (recombinant PRL-1; 2.5 µM protein, DiFMUP at KM, read-out: Calculated IC50, PRL-1 phosphatase activity): 94 ± 26 µM
Tyloxapol |  |  |  | % Phosphatase Activity (compared to DMSO) PRL-3 (recombinant PRL-3; [2]): 90%; % Phosphatase Activity (compared to DMSO) PRL-2 (recombinant PRL-2; [2]): 83%; % Phosphatase Activity (compared to DMSO) PRL-1 (recombinant PRL-1; [2]): 89%
CCOC(=O)OC(C)OC1=C(C(=O)Nc2ccccn2)N(C)S(=O)(=O)c2ccccc21 (stereo not drawn) [Ampiroxicam] | 88 | 114 | 114 | 

Compound | % Phosphatase Activity (compared to DMSO) PRL-3 (recombinant PRL-3; [1]) [%] | % Phosphatase Activity (compared to DMSO) PRL-2 (recombinant PRL-2; [1]) [%] | % Phosphatase Activity (compared to DMSO) PRL-1 (recombinant PRL-1; [1]) [%] | other results
CCN1CCCC1CNC(=O)c1cc(S(N)(=O)=O)ccc1OC (stereo not drawn) [Sulpiride] |  |  |  | % Phosphatase Activity (compared to DMSO) PRL-3 (recombinant PRL-3; [2]): 70%; % Phosphatase Activity (compared to DMSO) PRL-2 (recombinant PRL-2; [2]): 92%; % Phosphatase Activity (compared to DMSO) PRL-1 (recombinant PRL-1; [2]): 89%
CN1CCCCC1CCN1c2ccccc2Sc2ccc([S+](C)[O-])cc21 (stereo not drawn) [Mesoridazine Besylate] |  |  |  | % Phosphatase Activity (compared to DMSO) PRL-3 (recombinant PRL-3): 99%; % Phosphatase Activity (compared to DMSO) PRL-2 (recombinant PRL-2): 95%; % Phosphatase Activity (compared to DMSO) PRL-1 (recombinant PRL-1): 98%
CCN(CC)C(=O)C1(c2ccccc2)CC1CN.Cl (stereo not drawn) [Milnacipran HCl] | 80 | 107 | 114 | 
NC[C@H](O)c1ccc(O)c(O)c1.O.O=C(O)C(O)C(O)C(=O)O [Noradrenaline bitartrate monohydrate] | 88 | 120 | 103 | 
CCN1CCC[C@H]1CNC(=O)c1cc(S(N)(=O)=O)ccc1OC [Levosulpiride] | 84 | 103 | 98 | 
C[N+](C)(C)CC(O)CC(=O)O.[Cl-] (racemic) [DL-Carnitine HCl] | 85 | 94 | 100 | 
Cc1cc(=O)n(-c2ccccc2)n1C [Antipyrine] | 87 | 107 | 98 | 
NC(=O)C[S+]([O-])C(c1ccccc1)c1ccccc1 (stereo not drawn) [Modafinil] | 82 | 92 | 91 | 
O=C(CCCCCCC(=O)Nc1ccccc1)NO [Vorinostat (SAHA, MK0683)] |  |  |  | % Phosphatase Activity (compared to DMSO) PRL-3 (recombinant PRL-3; [2]): 92%; % Phosphatase Activity (compared to DMSO) PRL-2 (recombinant PRL-2; [2]): 89%; % Phosphatase Activity (compared to DMSO) PRL-1 (recombinant PRL-1; [2]): 98%
CC(C)Cn1cnc2c(N)nc3ccccc3c21 [Imiquimod] | 67 | 106 | 98 | 
COc1cc(Nc2ncc(F)c(Nc3ccc4c(n3)N(COP(=O)([O-])[O-])C(=O)C(C)(C)O4)n2)cc(OC)c1OC.[Na+].[Na+] [R788 (Fostamatinib) Disodium] | 88 | 119 | 90 | 
Nc1nc(F)nc2c1ncn2[C@@H]1O[C@H](COP(=O)(O)O)[C@@H](O)[C@@H]1O [Fludarabine Phosphate] | 70 | 91 | 97 | 
NC(=O)N/N=C/c1ccc([N+](=O)[O-])o1 [Nitrofural] | 68 | 72 | 82 | 
CCS(=O)(=O)CCn1c([N+](=O)[O-])cnc1C [Tinidazole] |  |  |  | % Phosphatase Activity (compared to DMSO) PRL-3 (recombinant PRL-3; [2]): 84%; % Phosphatase Activity (compared to DMSO) PRL-2 (recombinant PRL-2; [2]): 113%; % Phosphatase Activity (compared to DMSO) PRL-1 (recombinant PRL-1; [2]): 107%
COC(=O)[C@H]1[C@H]2C[C@@H]3c4[nH]c5cc(OC)ccc5c4CCN3C[C@H]2C[C@@H](OC(=O)c2cc(OC)c(OC)c(OC)c2)[C@@H]1OC [Reserpine] | 92 | 105 | 110 | 
Nc1nccs1 [Aminothiazole] | 79 | 103 | 108 | 
O=C(O)c1ccc(-n2nc(-c3ccccc3O)nc2-c2ccccc2O)cc1 [Deferasirox] | 81 | 104 | 108 | 
Cc1nnc(C(=O)NC(C)(C)c2nc(C(=O)NCc3ccc(F)cc3)c(O)c(=O)n2C)o1 [Raltegravir (MK-0518)] | 90 | 105 | 96 | 

Source: publication PMC8119466, “A screen of FDA-approved drugs identifies inhibitors of protein tyrosine phosphatase 4A3 (PTP4A3 or PRL-3)” (Scientific Reports, 2021)
